From patent US20210267948A1, “TREATMENT OF CANCER” (CITY OF HOPE, priority 2017, published 2021)

Key:
[1] = system: HCC1937+BRCA1 tumors; assay: Orthotopic tumor model, HCC1937+BRCA1; type: in vivo, mouse; conditions: HCC1937+BRCA1 in mammary fat pads, NSG mice, daily oral 400 mg/kg, 28 days
Protocol: Orthotopic Tumor Model. Experiments in mice were conducted under a protocol approved by the IACUC of City of Hope. Because HCC1937 and HCC1937+BRCA1 cells form slow-growing tumors, they were implanted using MATRIGEL™ (Becton-Dickinson Biosciences). To establish tumors, 4×10^6 cells in 200 μL serum-free medium containing 50% MATRIGEL™ were injected into the mammary fat pads around the inguinal area of a pair of 8 week old female NSG mice. Once the initial tumors reached 13 mm in diameter, they were dissected out, minced into 3 mm pieces and implanted into the inguinal area of the mammary fat pads of the experimental mice. Tumors were measured over a 28-day period, and for each time point, the student t-test was used to determine the statistical significance between daily gavage with 400 mg/kg COH29 in 30% solutol and corresponding vehicle control. Thep value less than 0.05 (2 sides) was considered to indicate statistical significance

[2] = system: MCF-7 p53−/−; assay: DNA damage checkpoint Western blot, MCF-7 p53-/-; type: cell-based, human
Protocol: FIG. 6. COH29 treatment activates DNA damage checkpoint. The effect of COH29 treatment on DNA damage checkpoint proteins in human breast cancer cells expressing wt p53 (MCF-7) or defective for p53 (MCF-7p53−/−), and in triple-negative breast cancer cells (MDA-MB-468) assessed by Western Blot.
For subcellular fractionation, cells were trypsinized and washed with cold PBS solution twice. After centrifugation at 1,200 g for 5 min, cells were incubated in buffer (50 mM HEPES, pH 7.5, 150 mM NaCl, 1 mM EDTA) containing 0.2% NONIDET™ P-40 (NP-40), supplemented with protease inhibitors (5 μg/ml each of pepstatin, leupeptin, and aprotinin) and phosphatase inhibitors on ice for 5 min. Following centrifugation at 1,000 g for 5 min, the supernatant was collected (i.e., cytoplasmic fraction) and pellets were washed with the same buffer twice. The washed samples were extracted for 40 min on ice with fractionation buffer containing 0.5% NP-40 for nuclear fraction. All the samples were sonicated and clarified by centrifugation at 16,000 g for 15 min. Protein concentrations of all fractions were determined with Bio-Rad Protein Assay (Bio-Rad Laboratories, Hercules, Calif.). Immunoblotting was performed as described previously (21,22). […] The immunoblots were visualized on film with the West-Q chemi-luminescence kit (GenDEPOT, Barker, Tex.).

[3] = system: EJ5 cells (NHEJ pathway); assay: NHEJ repair GFP reporter (EJ5-GFP); type: cell-based; conditions: 24 h
Protocol: The EJ2 cells were generated to evaluate Alt-NHEJ through monitoring the fluorescence intensity of GFP, and EJ5 cells were used to determine NJEJ, as described previously (23). Cells were seeded into 6-well plate and treated with COH29 or cisplatin at different concentration for 24 hours. The cells were then trypsinized, washed, and analyzed by flow cytometry.

O=C(Nc1nc(-c2ccc(O)c(O)c2)c(-c2ccccc2)s1)c1ccc(O)c(O)c1 [COH29, N-(4-(3,4-dihydroxyphenyl)-5-phenylthiazol-2-yl)-3,4-dihydroxybenzamide]
tumor size vs vehicle controls [1]: not significantly smaller
DNA damage checkpoint proteins (ATM, CHK1, CHK2) [2]: similarly modified
γ-H2AX level [2]: increase
NHEJ repair efficiency [3]: little effect
